This is an account of results in PubChem BioAssay AID192 (DTP/NCI, 2004).

The subject of the assay is BDF1 mice, B16 melanoma ip, median survival T/C. The experiment in a line: NCI In Vivo Anticancer Drug Screen. Data for tumor model B16 Melanoma (intraperitoneal) in B6D2F1 (BDF1) mice. The note with it: endpoint: median survival time, higher = longer survival. An outline of the steps: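 Tumor-bearing mice received test compound or vehicle. Survival or tumor size was then measured in both groups. The treated-group figure was divided by the control-group figure.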

[1] abbreviates: dose: 25.0 mg/kg/injection, schedule: Q01DX009 (ip), vehicle: Klucel (hydroxypropylcellulose) (HPC).
Where [2] appears, read: dose: 100.0 mg/kg/injection, schedule: Q01DX009 (ip), vehicle: Klucel (hydroxypropylcellulose) (HPC).
[3] abbreviates: dose: 200.0 mg/kg/injection, schedule: Q04DX003 (ip), vehicle: saline.
Setting [4] is: dose: 100.0 mg/kg/injection, schedule: Q04DX003 (ip), vehicle: Klucel (hydroxypropylcellulose) (HPC).
Where [5] appears, read: dose: 200.0 mg/kg/injection, schedule: Q04DX003 (ip), vehicle: Klucel (hydroxypropylcellulose) (HPC).
[6] abbreviates: dose: 400.0 mg/kg/injection, schedule: Q04DX003 (ip), vehicle: Klucel (hydroxypropylcellulose) (HPC).

Values joined by “and” are separate entries in the source; they are usually repeats but may differ in a detail not shown here. Equal entries are not always repeated. Inconclusive results and toxic doses are left out. Square brackets hold non-standard residues; d marks the D form. Peptide text beside a SMILES is read from it. ξ: configuration not given here. ξH = NC(Cc1c[nH]cn1)C(=O)O

`O=P1(N(CCCl)CCCl)NCCCO1` (stereo not given): the T/C reads like this: (dose: 2.5 mg/kg/injection, schedule: Q01DX009 (ip), vehicle: saline) 102 % of control; (dose: 5.0 mg/kg/injection, schedule: Q01DX009 (ip), vehicle: saline) 100 % of control; (dose: 6.25 mg/kg/injection, schedule: Q01DX017 (ip), vehicle: saline) 110 % of control; (dose: 6.25 mg/kg/injection, schedule: Q02DX009 (ip), vehicle: saline) 107 % of control and 108 % of control; (dose: 10.0 mg/kg/injection, schedule: Q01DX005 (ip), vehicle: water) 100 % of control; (dose: 10.0 mg/kg/injection, schedule: Q01DX009 (ip), vehicle: saline) 102 % of control. Besides, the T/C was 111 % of control (dose: 10.0 mg/kg/injection, schedule: Q01DX009 (ip), vehicle: water); 114 % of control (dose: 10.0 mg/kg/injection, schedule: Q04DX003 (ip), vehicle: saline); 105 % of control (dose: 12.0 mg/kg/injection, schedule: Q01DX009 (ip), vehicle: saline); 104 % of control (dose: 12.5 mg/kg/injection, schedule: Q01DX009 (ip), vehicle: water); 107 % of control (dose: 12.5 mg/kg/injection, schedule: Q02DX009 (ip), vehicle: saline); 107 % of control (dose: 15.0 mg/kg/injection, schedule: Q04DX003 (ip), vehicle: saline). The T/C is 111 % of control (dose: 20.0 mg/kg/injection, schedule: Q01DX005 (ip), vehicle: water); 112 % of control (dose: 20.0 mg/kg/injection, schedule: Q01DX009 (ip), vehicle: saline); 120 % of control (dose: 20.0 mg/kg/injection, schedule: Q04DX003 (ip), vehicle: saline); 103 % of control (dose: 25.0 mg/kg/injection, schedule: Q01DX001 (ip), vehicle: saline); 107 % of control under setting [1]; 112 % of control (dose: 25.0 mg/kg/injection, schedule: Q01DX009 (ip), vehicle: saline with Tween-80). Also, the T/C was 150 % of control (dose: 25.0 mg/kg/injection, schedule: Q01DX017 (ip), vehicle: saline); 114 % of control and 122 % of control and 123 % of control (dose: 25.0 mg/kg/injection, schedule: Q02DX009 (ip), vehicle: saline); 119 % of control and 122 % of control (dose: 25.0 mg/kg/injection, schedule: Q04DX003 (ip), vehicle: saline); 117 % of control (dose: 25.0 mg/kg/injection, schedule: Q08DX002 (ip), vehicle: saline); 161 % of control (dose: 30.0 mg/kg/injection, schedule: Q01DX009 (ip), vehicle: water); 114 % of control (dose: 30.0 mg/kg/injection, schedule: Q04DX003 (ip), vehicle: saline). For the same compound, the T/C is 116 % of control (dose: 38.9 mg/kg/injection, schedule: Q08DX002 (ip), vehicle: saline); 122 % of control (dose: 40.0 mg/kg/injection, schedule: Q01DX005 (ip), vehicle: water); 172 % of control (dose: 40.0 mg/kg/injection, schedule: Q01DX009 (ip), vehicle: water); 124 % of control (dose: 40.0 mg/kg/injection, schedule: Q04DX003 (ip), vehicle: saline); 120 % of control (dose: 41.5 mg/kg/injection, schedule: Q04DX003 (ip), vehicle: saline); 159 % of control and 180 % of control (dose: 50.0 mg/kg/injection, schedule: Q01DX009 (ip), vehicle: water). The T/C (dose: 50.0 mg/kg/injection, schedule: Q01DX017 (ip), vehicle: saline) is 110 % of control; the T/C (dose: 50.0 mg/kg/injection, schedule: Q04DX003 (ip), vehicle: saline) is 124 % of control; the T/C (dose: 50.0 mg/kg/injection, schedule: Q04DX005 (ip), vehicle: saline) was 162 % of control; the T/C (dose: 60.0 mg/kg/injection, schedule: Q01DX005 (ip), vehicle: water) was 169 % of control; the T/C (dose: 72.0 mg/kg/injection, schedule: Q01DX001 (ip), vehicle: saline) was 110 % of control; the T/C (dose: 75.0 mg/kg/injection, schedule: Q01DX001 (ip), vehicle: Klucel (hydroxypropylcellulose) (HPC)) was 156 % of control. The T/C runs as follows: (dose: 80.0 mg/kg/injection, schedule: Q04DX003 (ip), vehicle: saline) 159 % of control; (dose: 93.3 mg/kg/injection, schedule: Q04DX003 (ip), vehicle: saline) 169 % of control; under setting [2], 117 % of control; (dose: 100.0 mg/kg/injection, schedule: Q01DX009 (ip), vehicle: saline with Tween-80) 103 % of control and 117 % of control; (dose: 100.0 mg/kg/injection, schedule: Q02DX009 (ip), vehicle: saline) 91 % of control and 112 % of control; (dose: 100.0 mg/kg/injection, schedule: Q04DX005 (ip), vehicle: saline) 105 % of control. Further, the T/C was 166 % of control (dose: 100.0 mg/kg/injection, schedule: Q08DX003 (ip), vehicle: saline); 161 % of control (dose: 108.0 mg/kg/injection, schedule: Q08DX002 (ip), vehicle: saline); 124 % of control (dose: 120.0 mg/kg/injection, schedule: Q01DX001 (ip), vehicle: saline); 163 % of control (dose: 120.0 mg/kg/injection, schedule: Q04DX003 (ip), vehicle: saline); 169 % of control (dose: 140.0 mg/kg/injection, schedule: Q04DX003 (ip), vehicle: saline); 191 % of control (dose: 160.0 mg/kg/injection, schedule: Q04DX003 (ip), vehicle: saline). Further, the T/C by setting is: (dose: 180.0 mg/kg/injection, schedule: Q08DX002 (ip), vehicle: saline) 192 % of control; (dose: 200.0 mg/kg/injection, schedule: Q01DX001 (ip), vehicle: water) 121 % of control; under setting [3], 111 % of control; (dose: 210.0 mg/kg/injection, schedule: Q04DX003 (ip), vehicle: saline) 205 % of control; (dose: 300.0 mg/kg/injection, schedule: Q01DX001 (ip), vehicle: Klucel (hydroxypropylcellulose) (HPC)) 100 % of control; (dose: 300.0 mg/kg/injection, schedule: Q08DX002 (ip), vehicle: saline) 117 % of control and 220 % of control and 226 % of control. The T/C (dose: 333.0 mg/kg/injection, schedule: Q01DX001 (ip), vehicle: saline) is 155 % of control.

Regarding `CC(=O)N/C(=C/c1ccccc1)C(=O)O`, the T/C reads like this: under setting [2], 94 % of control; under setting [4], 93 % of control; (dose: 200.0 mg/kg/injection, schedule: Q01DX009 (ip), vehicle: Klucel (hydroxypropylcellulose) (HPC)) 108 % of control; under setting [5], 86 % of control; (dose: 400.0 mg/kg/injection, schedule: Q01DX009 (ip), vehicle: Klucel (hydroxypropylcellulose) (HPC)) 97 % of control; under setting [6], 90 % of control.

`OCc1cc2ccccc2[nH]1`: the T/C reads like this: under setting [4], 112 % of control; under setting [5], 110 % of control; under setting [6], 106 % of control.

Turning to `COc1cc2cc[n+](C)c(Cc3ccccc3)c2cc1OC`, the T/C (dose: 3.12 mg/kg/injection, schedule: Q01DX009 (ip), vehicle: Klucel (hydroxypropylcellulose) (HPC)) is 102 % of control; the T/C (dose: 6.25 mg/kg/injection, schedule: Q01DX009 (ip), vehicle: Klucel (hydroxypropylcellulose) (HPC)) was 102 % of control; the T/C (dose: 12.5 mg/kg/injection, schedule: Q01DX009 (ip), vehicle: Klucel (hydroxypropylcellulose) (HPC)) was 102 % of control; the T/C under setting [1] was 104 % of control.

Regarding `O=C(O)C1CC2C3CC(C(=O)O)C(C3)C2C1` (stereo not given), the T/C (dose: 100.0 mg/kg/injection, schedule: Q04DX003 (ip), vehicle: saline) is 108 % of control; the T/C under setting [3] was 104 % of control; the T/C (dose: 400.0 mg/kg/injection, schedule: Q04DX003 (ip), vehicle: saline) is 105 % of control.

`NCC(=O)NCC(=O)NC(Cc1cnc[nH]1)C(=O)O` (stereo not drawn) (H-Gly-Gly-[ξH]-OH): the T/C was 92 % of control (dose: 50.0 mg/kg/injection, schedule: Q01DX009 (ip), vehicle: saline); 99 % of control (dose: 100.0 mg/kg/injection, schedule: Q01DX009 (ip), vehicle: saline); 88 % of control (dose: 200.0 mg/kg/injection, schedule: Q01DX009 (ip), vehicle: saline); 101 % of control (dose: 400.0 mg/kg/injection, schedule: Q01DX009 (ip), vehicle: saline).
